Reference: ChEMBL document CHEMBL1909046, “DrugMatrix in vitro pharmacology data”

Assays:
[1] = DRUGMATRIX: Platelet-Derived Growth Factor (PDGF) radioligand binding (ligand: [125I] PDGF); assay type: cell-based; conditions: nih3t3; Not Active = under 50% inhibition at 10 µM
[2] = DRUGMATRIX: Phorbol Ester radioligand binding (ligand: [3H] PDBu); assay type: cell membranes, Mus musculus, ICR, Brain, Membrane; conditions: Not Active = under 50% inhibition at 10 µM
[3] = DRUGMATRIX: Glutamate, NMDA, Agonism radioligand binding (ligand: [3H] CGP-39653); assay type: cell membranes, Rattus norvegicus, Wistar, Cerebral cortex, Membrane; conditions: Not Active = under 50% inhibition at 10 µM
[4] = DRUGMATRIX: GABAA, Flunitrazepam, Central radioligand binding (ligand: [3H] Flunitrazepam); assay type: cell membranes, Rattus norvegicus, Wistar, Brain, Membrane; conditions: Not Active = under 50% inhibition at 10 µM
Interstitial collagenase = biological target: T1, Interstitial collagenase (Homo sapiens, UniProt P03956); assay type: tissue-based, Rheumatoid synovial fibroblasts;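 further: MMP-1 enzyme inhibition assay using a peptide substrate; in other assays of this panel Not Active means under 50% inhibition at 10 µM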
T1 sequence (P03956 whole entry): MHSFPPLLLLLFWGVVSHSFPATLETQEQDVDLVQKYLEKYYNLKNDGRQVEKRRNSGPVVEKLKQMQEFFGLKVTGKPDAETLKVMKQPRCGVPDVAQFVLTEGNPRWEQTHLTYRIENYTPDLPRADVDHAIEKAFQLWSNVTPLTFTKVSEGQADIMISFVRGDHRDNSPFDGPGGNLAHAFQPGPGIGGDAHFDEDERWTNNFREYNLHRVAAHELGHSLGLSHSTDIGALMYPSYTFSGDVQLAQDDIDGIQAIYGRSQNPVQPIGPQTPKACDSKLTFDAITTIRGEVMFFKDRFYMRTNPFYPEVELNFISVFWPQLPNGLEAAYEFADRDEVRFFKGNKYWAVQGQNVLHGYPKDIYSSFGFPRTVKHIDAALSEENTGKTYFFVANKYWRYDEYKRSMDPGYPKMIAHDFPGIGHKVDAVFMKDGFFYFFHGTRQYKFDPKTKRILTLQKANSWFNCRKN

[5] = biological target: Prostaglandin G/H synthase 1 (Homo sapiens, UniProt P23219); assay: biochemical; assay type: tissue-based, Platelet; conditions: platelet;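 further: inhibition of COX-1 enzyme activity, with arachidonic acid supplied as substrate; in other assays of this panel Not Active means under 50% inhibition at 10 µM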
Chain of Prostaglandin G/H synthase 1 (P23219 whole entry): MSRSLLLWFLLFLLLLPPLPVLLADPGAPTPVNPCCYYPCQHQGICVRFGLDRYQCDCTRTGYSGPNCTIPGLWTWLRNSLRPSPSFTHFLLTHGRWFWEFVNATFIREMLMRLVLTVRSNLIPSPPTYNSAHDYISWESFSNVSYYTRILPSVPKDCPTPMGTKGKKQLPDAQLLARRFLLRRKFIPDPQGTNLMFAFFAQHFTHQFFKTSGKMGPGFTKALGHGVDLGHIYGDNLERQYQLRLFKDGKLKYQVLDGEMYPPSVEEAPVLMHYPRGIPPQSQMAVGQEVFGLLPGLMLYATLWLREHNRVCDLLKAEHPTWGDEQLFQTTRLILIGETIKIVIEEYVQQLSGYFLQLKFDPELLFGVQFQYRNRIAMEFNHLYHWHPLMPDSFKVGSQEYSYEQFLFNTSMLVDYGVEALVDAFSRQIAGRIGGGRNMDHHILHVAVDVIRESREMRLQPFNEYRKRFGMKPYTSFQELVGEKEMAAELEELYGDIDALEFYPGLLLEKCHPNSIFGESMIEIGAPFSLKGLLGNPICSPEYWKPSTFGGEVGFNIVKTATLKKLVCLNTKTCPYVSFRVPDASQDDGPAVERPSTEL

[6] = biological target: Vascular endothelial growth factor receptor 1 (Homo sapiens, UniProt P17948); assay: biochemical; assay type: cell-based, HUVEC; conditions: huvec; further: in other assays of this panel Not Active means under 50% inhibition at 10 µM
Chain of Vascular endothelial growth factor receptor 1 (P17948 whole entry): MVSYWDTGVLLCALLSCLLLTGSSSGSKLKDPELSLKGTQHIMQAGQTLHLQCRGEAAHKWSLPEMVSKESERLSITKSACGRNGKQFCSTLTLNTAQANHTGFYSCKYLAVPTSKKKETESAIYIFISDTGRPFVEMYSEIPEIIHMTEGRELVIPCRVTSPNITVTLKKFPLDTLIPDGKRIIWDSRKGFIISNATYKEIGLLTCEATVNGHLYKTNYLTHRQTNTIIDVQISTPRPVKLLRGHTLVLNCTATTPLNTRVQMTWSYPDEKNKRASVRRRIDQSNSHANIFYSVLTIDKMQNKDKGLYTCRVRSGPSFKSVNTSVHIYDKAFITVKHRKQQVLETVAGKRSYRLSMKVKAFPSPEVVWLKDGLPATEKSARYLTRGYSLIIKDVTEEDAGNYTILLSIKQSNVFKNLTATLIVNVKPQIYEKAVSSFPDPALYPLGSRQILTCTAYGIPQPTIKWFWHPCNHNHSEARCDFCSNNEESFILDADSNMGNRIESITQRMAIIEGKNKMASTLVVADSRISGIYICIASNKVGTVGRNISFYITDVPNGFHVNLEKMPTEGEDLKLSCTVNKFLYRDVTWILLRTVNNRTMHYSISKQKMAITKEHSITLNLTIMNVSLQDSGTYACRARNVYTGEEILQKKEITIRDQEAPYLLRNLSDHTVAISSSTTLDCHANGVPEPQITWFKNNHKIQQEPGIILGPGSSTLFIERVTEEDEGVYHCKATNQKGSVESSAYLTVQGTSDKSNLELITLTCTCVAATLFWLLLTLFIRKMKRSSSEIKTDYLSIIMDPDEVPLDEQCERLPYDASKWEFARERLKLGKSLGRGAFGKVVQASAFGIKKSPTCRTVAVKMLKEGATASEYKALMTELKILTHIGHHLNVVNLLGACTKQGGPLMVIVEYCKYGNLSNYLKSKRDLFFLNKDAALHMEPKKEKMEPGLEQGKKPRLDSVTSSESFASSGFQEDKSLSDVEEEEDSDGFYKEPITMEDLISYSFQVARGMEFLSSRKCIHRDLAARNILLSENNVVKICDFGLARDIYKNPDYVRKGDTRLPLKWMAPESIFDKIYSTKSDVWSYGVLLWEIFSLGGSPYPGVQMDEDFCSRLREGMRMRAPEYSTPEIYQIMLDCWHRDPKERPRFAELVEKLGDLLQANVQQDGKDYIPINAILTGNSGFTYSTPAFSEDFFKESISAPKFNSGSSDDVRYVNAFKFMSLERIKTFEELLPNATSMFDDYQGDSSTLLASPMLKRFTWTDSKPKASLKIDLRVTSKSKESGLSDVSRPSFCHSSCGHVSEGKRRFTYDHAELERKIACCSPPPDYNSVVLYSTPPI

[7] = biological target: Mitogen-activated protein kinase 3 (Homo sapiens, UniProt P27361); assay: DRUGMATRIX: Protein Serine/Threonine Kinase, ERK1 enzyme inhibition (substrate: Myelin Basic Protein); parameters: species or system Escherichia coli; conditions: Not Active = under 50% inhibition at 10 µM
Chain of Mitogen-activated protein kinase 3 (P27361 whole entry): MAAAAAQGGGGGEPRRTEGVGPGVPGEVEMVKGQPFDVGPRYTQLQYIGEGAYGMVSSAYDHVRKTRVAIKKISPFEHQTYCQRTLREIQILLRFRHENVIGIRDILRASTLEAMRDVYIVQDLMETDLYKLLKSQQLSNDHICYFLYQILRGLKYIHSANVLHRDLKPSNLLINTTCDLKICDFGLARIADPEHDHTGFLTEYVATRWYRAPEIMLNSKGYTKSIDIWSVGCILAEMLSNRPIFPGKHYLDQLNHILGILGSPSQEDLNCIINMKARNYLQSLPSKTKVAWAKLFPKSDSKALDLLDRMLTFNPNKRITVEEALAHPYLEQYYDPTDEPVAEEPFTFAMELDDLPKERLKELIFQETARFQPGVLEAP

[8] = biological target: cGMP-specific 3',5'-cyclic phosphodiesterase (Homo sapiens, UniProt O76074); assay: DRUGMATRIX: Phosphodiesterase PDE5 enzyme inhibition (substrate: [3H]cGMP + cGMP); assay type: tissue-based; conditions: platelet; Not Active = under 50% inhibition at 10 µM

COc1cc(N)nc2[nH]c(-c3ccc(F)cc3)c(-c3ccncc3)c12
Not Active: IC50 [1] | Ki [1] | IC50 [2] | Ki [2] | IC50 [3] | Ki [3] | IC50 [4] | Ki [4] | IC50 (Interstitial collagenase) | IC50 [5] | IC50 [6] | IC50 [7] | IC50 [8]

CNS(=O)(=O)Cc1ccc2[nH]cc(CCN(C)C)c2c1
Not Active: IC50 [1] | Ki [1] | IC50 [2] | Ki [2] | IC50 [3] | Ki [3] | IC50 [4] | Ki [4] | IC50 (Interstitial collagenase) | IC50 [5] | IC50 [6] | IC50 [7] | IC50 [8]

CCCc1nn(C)c2c(=O)[nH]c(-c3cc(S(=O)(=O)N4CCN(C)CC4)ccc3OCC)nc12
Not Active: IC50 [1] | Ki [1] | IC50 [2] | Ki [2] | IC50 [3] | Ki [3] | IC50 [4] | Ki [4] | IC50 (Interstitial collagenase) | IC50 [5] | IC50 [6] | IC50 [7]

COc1ccc(/C=C/C(=O)Nc2ccccc2C(=O)O)cc1OC
Not Active: IC50 [1] | Ki [1] | IC50 [2] | Ki [2] | IC50 [3] | Ki [3] | IC50 [4] | Ki [4] | IC50 (Interstitial collagenase) | IC50 [5] | IC50 [6] | IC50 [7] | IC50 [8]

CCOC(N)=O
Not Active: IC50 [1] | Ki [1] | IC50 [2] | Ki [2] | IC50 [3] | Ki [3] | IC50 [4] | Ki [4] | IC50 (Interstitial collagenase) | IC50 [5] | IC50 [6] | IC50 [7] | IC50 [8]

CC(=O)Nc1nnc(S(N)(=O)=O)s1 [ACETAZOLAMIDE]
Not Active: IC50 (Interstitial collagenase) | IC50 [5] | IC50 [6] | IC50 [7] | IC50 [8]

O=c1[nH]c2ccccc2n1CCCN1CCC(n2c(=O)[nH]c3cc(Cl)ccc32)CC1 [DOMPERIDONE]
Not Active: IC50 (Interstitial collagenase) | IC50 [5] | IC50 [6] | IC50 [7] | IC50 [8]

CC1=C(CC(=O)O)c2cc(F)ccc2/C1=C\c1ccc(S(C)(=O)=O)cc1 [EXISULIND]
Not Active: IC50 [1] | Ki [1] | IC50 [2] | Ki [2] | IC50 [3] | Ki [3] | IC50 [4] | Ki [4] | IC50 (Interstitial collagenase) | IC50 [5] | IC50 [6] | IC50 [7] | IC50 [8]

CC(C)OC(=O)C(C)(C)Oc1ccc(C(=O)c2ccc(Cl)cc2)cc1 [FENOFIBRATE]
Not Active: IC50 (Interstitial collagenase) | IC50 [5] | IC50 [6] | IC50 [7] | IC50 [8]

OCCN1CCN(CCCN2c3ccccc3Sc3ccc(C(F)(F)F)cc32)CC1 [FLUPHENAZINE]
Not Active: IC50 (Interstitial collagenase) | IC50 [5] | IC50 [6] | IC50 [7] | IC50 [8]

CN1C2CCCC1CC(NC(=O)c1nn(C)c3ccccc13)C2 (stereo unspecified) [GRANISETRON]
Not Active: IC50 (Interstitial collagenase) | IC50 [5] | IC50 [6] | IC50 [7] | IC50 [8]

Nc1nc2c(c(=O)[nH]1)N(C=O)C(CNc1ccc(C(=O)N[C@@H](CCC(=O)O)C(=O)O)cc1)CN2 (stereo partly specified) [LEUCOVORIN]
Not Active: IC50 [1] | Ki [1] | IC50 [2] | Ki [2] | IC50 [3] | Ki [3] | IC50 [4] | Ki [4] | IC50 (Interstitial collagenase) | IC50 [5] | IC50 [6] | IC50 [8]

C[C@@H](O)[C@H]1C(=O)N2C(C(=O)O)=C(S[C@@H]3CN[C@H](C(=O)N(C)C)C3)[C@H](C)[C@H]12 [MEROPENEM]
Not Active: IC50 [1] | Ki [1] | IC50 [2] | Ki [2] | IC50 [3] | Ki [3] | IC50 [4] | Ki [4] | IC50 (Interstitial collagenase) | IC50 [5] | IC50 [6] | IC50 [7] | IC50 [8]

CC[C@@H](CO)NC(=O)[C@@H]1C=C2c3cccc4c3c(cn4C)C[C@H]2N(C)C1 [METHYSERGIDE]
Not Active: IC50 (Interstitial collagenase) | IC50 [5] | IC50 [6] | IC50 [7] | IC50 [8]

CCN(CC)CC#CCOC(=O)C(O)(c1ccccc1)C1CCCCC1 (stereo unspecified) [OXYBUTYNIN]
Not Active: IC50 (Interstitial collagenase) | IC50 [5] | IC50 [6] | IC50 [7] | IC50 [8]

O=P(O)(O)C(O)(Cc1cccnc1)P(=O)(O)O [RISEDRONIC ACID]
Not Active: IC50 [1] | Ki [1] | IC50 [2] | Ki [2] | IC50 [3] | Ki [3] | IC50 [4] | Ki [4] | IC50 (Interstitial collagenase) | IC50 [5] | IC50 [6] | IC50 [7] | IC50 [8]

CN(CCOc1ccc(CC2SC(=O)NC2=O)cc1)c1ccccn1 (stereo unspecified) [ROSIGLITAZONE]
Not Active: IC50 [1] | Ki [1] | IC50 [2] | Ki [2] | IC50 [3] | Ki [3] | IC50 [4] | Ki [4] | IC50 (Interstitial collagenase) | IC50 [5] | IC50 [6] | IC50 [7] | IC50 [8]

C=C(C)[C@H]1Cc2c(ccc3c2O[C@@H]2COc4cc(OC)c(OC)cc4[C@@H]2C3=O)O1 [ROTENONE]
Not Active: IC50 [1] | Ki [1] | IC50 [2] | Ki [2] | IC50 [3] | Ki [3] | IC50 [4] | Ki [4] | IC50 (Interstitial collagenase) | IC50 [5] | IC50 [6] | IC50 [7] | IC50 [8]

O=c1n(CCCN2CCN(c3cccc(Cl)c3)CC2)nc2ccccn12 [TRAZODONE]
Not Active: IC50 (Interstitial collagenase) | IC50 [5] | IC50 [6] | IC50 [7] | IC50 [8]
